What was measured:
[1] = target: T1, COX-2 (Ovis aries, UniProt P79208); test: inhibition of COX-2 enzymatic activity (PGE2 by EIA); type: biochemical, ewe; conditions: for IC50: purified enzyme from ewe placenta, arachidonic acid 4 μM, n=1 to 4 determinations; for Selectivity COX-1/COX-2 ratio: ratio of IC50 COX-1 / IC50 COX-2
T1 construct: purified enzyme from ewe placenta; from tissue; host or cells: ewe placenta (purified enzyme)
T1 sequence (P79208 17-603): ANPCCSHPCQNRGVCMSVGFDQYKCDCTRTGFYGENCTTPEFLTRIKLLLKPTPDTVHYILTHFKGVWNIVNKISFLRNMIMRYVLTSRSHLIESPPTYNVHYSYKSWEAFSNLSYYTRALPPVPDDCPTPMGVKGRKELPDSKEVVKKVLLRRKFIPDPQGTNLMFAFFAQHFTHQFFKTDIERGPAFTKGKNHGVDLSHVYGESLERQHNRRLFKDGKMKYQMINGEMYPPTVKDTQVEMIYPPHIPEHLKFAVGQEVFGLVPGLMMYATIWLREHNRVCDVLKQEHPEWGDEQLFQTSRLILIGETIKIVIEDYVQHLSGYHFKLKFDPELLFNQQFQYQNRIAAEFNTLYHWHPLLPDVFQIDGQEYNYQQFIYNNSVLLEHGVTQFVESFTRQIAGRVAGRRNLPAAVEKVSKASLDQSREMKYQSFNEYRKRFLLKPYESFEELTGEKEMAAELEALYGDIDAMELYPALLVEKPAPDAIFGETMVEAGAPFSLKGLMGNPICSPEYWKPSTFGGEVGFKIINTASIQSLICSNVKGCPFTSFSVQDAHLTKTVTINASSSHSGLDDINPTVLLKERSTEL
Procedure: (§1) Inhibition of the COX-1 and COX-2 Enzymatic Activities The test molecule is preincubated for 10 minutes at 25° C. with 2 U of COX-1 (purified enzyme from ram seminal vesicles) or 1 U of COX-2 (purified enzyme from ewe placenta). Arachidonic acid (6 μM for COX-1, 4 μM for COX-2) is added to the reaction medium and incubation is carried out for 5 minutes at 25° C. When incubation has ended, the enzymatic reaction is stopped by the addition of 1 N HCl and the PGE2 produced is determined by EIA. The results are expressed as IC50, the concentration in nM which corresponds to 50% inhibition of the maximal enzymatic activity on the COX-1 and COX-2 (n=1 to 4 determinations).

[2] = system: carrageenin oedema; test: anti-inflammatory activity, carrageenin oedema test; type: in vivo; conditions: rat, oral; dose which induces 50% decrease in the volume of the oedema; read-out: Anti-inflammatory activity ID50
Procedure: (§2) The anti-inflarnmatory activity of the compounds of the Examples was evaluated by the carrageenin oedema method and the analgesic activity was evaluated by the kaolin arthritis method.
Anti-inflammatory Activity:
The anti-inflammatory activity is evaluated in the rat by the carrageenin oedema test. The product is administered orally at a rate of 2.5 ml/100 g (n=6 animals per dose) 2 h 30 min after oral hyperhydration (2.5 m/100 g); one hour after administration of the product, the oedema is induced by the plantar subcutaneous injection of 2% aqueous carrageenin solution. The results are expressed as the ID50, the dose in mg/kg which induces 50% decrease in the volume of the oedema, calculated by linear regression using the maximum oedema volume obtained for each product tested.

[3] = gastric tolerance, ulceration index; design: species or system Charles River rats of the CD strain; conditions: rat, in vivo, po
Procedure: The gastric tolerance is studied on Charles River rats of the CD strain weighing between 110 and 150 g. The animals are placed on a water diet 24 h prior to oral administration of the product or the vehicle only at a rate of 1 ml/100 g (n=6 animals per dose). Six hours after administration,the animals are sacrificed and the stomachs are removed and opened along the large curvature. The number of haemorrhagic puncta and sulci per stomach, identified macroscopically, makes it possible to establish an ulceration index (0: no lesion, 1: 1 to 2 lesions, 2: 3 to 4 lesions, 3: 5 to 8 lesions, 4: 9 to 16 lesions, 5: more than 17 lesions) and to estimate the 50% ulcerigenic dose (UD50 =dose inducing 4 to 5 lesions, expressed in mg/kg).

[4] = system: kaolin arthritis; test: analgesic activity, kaolin arthritis test; type: in vivo; conditions: rat, oral; dose which induces 50% decrease of the maximum quotation in the control batch; read-out: Analgesic activity DE50
Procedure: as §2
The analgesic activity is evaluated in the rat by the kaolin arthritis test. Thirty minutes after the intra-articular administration of 10% aqueous kaolin suspension, the product is administered orally at a rate of 1 ml/100 g (n=10 animals per dose). The results are expressed as DE50, the dose in mg/kg which induces 50% decrease of the maximum quotation in the control batch, calculated by linear regression.

[5] = target: T2, COX-1 (Ovis aries, UniProt P05979); test: inhibition of COX-1 enzymatic activity (PGE2 by EIA); type: biochemical; conditions: purified enzyme from ram seminal vesicles; arachidonic acid 6 μM; n=1 to 4 determinations
T2 construct: purified enzyme from ram seminal vesicles; from tissue; host or cells: ram seminal vesicles (purified enzyme)
T2 sequence (P05979 25-600): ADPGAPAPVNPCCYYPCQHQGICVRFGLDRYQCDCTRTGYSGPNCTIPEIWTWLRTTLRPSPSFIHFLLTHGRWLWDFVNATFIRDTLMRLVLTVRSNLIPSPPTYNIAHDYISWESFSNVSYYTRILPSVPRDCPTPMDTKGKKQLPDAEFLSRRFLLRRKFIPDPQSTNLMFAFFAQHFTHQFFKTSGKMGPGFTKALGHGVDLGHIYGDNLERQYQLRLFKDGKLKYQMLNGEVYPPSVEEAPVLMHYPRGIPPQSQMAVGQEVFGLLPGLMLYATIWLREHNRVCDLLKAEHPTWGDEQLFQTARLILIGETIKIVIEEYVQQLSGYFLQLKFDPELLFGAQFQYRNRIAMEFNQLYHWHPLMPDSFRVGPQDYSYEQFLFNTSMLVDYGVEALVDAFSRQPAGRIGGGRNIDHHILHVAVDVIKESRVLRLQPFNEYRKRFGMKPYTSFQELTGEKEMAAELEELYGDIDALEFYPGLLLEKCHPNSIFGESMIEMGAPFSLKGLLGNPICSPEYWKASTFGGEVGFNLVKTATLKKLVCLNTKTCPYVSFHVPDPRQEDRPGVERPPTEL
Procedure: as §1

[6] = system: apc/min mice; test: chemoprevention assay in apc/min mice (model of human familial adenomatous polyposis); type: in vivo; conditions: 1.8 mg/kg/day in the feed
Procedure: Chemoprevention Assays in Mice:
The test molecule is given in the feed to apc/min mice, a mouse model of human familial adenomatous polyposis, at 1.8 mg/kg/day for 240 days. The viability and the average tumor burden in animals receiving the test compound is compared to that in control animals.

| Structure (SMILES) | IC50 [1] | Selectivity COX-1/COX-2 ratio [1] | ED50 [2] | TD50 at 6 h [3] | ED50 [4] | IC50 [5] | mice still alive ([6]; 240 days, control 8/29) | average tumor burden ([6]; 240 days, control 16.3 tumors) | viability compared to control ([6]; after 240 days) |
| --- | --- | --- | --- | --- | --- | --- | --- | --- | --- |
| CS(=O)(=O)c1ccc(/C(=C2\CCOC2=O)c2ccc(F)cc2)cc1 [4 (E isomer), (E)-3-[1-(4-fluorophenyl)-1-(4-methanesulphonylphenyl)methylidene]dihydrofuran-2-one] | 0.674 ± 0.046 µM | > 445 | 1.8 mg/kg | > 1000 mg/kg | 7.6 mg/kg | > 300 µM | – | – | – |
| CS(=O)(=O)c1ccc(/C(=C2\CCOC2=O)c2ccc(Cl)cc2)cc1 [8 (Z isomer), (Z)-3-[1-(4-chlorophenyl)-1-(4-methanesulphonylphenyl)methylidene]dihydrofuran-2-one] | 0.182 ± 0.025 µM | 944 | 3.7 mg/kg | > 1000 mg/kg | 2.1 mg/kg | 172 ± 22.2 µM | 17/29 | 11.9 tumors per mouse | outliving their control counterparts |
| NS(=O)(=O)c1ccc(/C(=C2\CCOC2=O)c2ccc(Cl)cc2)cc1 [125 (Z isomer), (Z)-4-[(4-chlorophenyl)-(2-oxo-dihydro-furan-3-ylidene)-methyl]benzenesulphonamide] | 0.06 µM | 42 | 1.8 mg/kg | > 1000 mg/kg | 8.5 mg/kg | 2.52 ± 1.31 µM | – | – | – |
| Cc1cc(/C(=C2/CCOC2=O)c2ccc(S(N)(=O)=O)cc2)ccc1F [135 (Z isomer), (Z)-4-[(4-fluoro-3-methylphenyl)-(2-oxo-dihydrofuran-3-ylidene)methyl]benzenesulphonamide] | 0.245 ± 0.076 µM | 80 | 3.3 mg/kg | – | 6.1 mg/kg | 19.7 µM | – | – | – |
| NS(=O)(=O)c1ccc(/C(=C2\CCOC2=O)c2ccc(F)c(Cl)c2)cc1 [143 (Z isomer), (Z)-4-[(3-chloro-4-fluorophenyl)-(2-oxo-dihydro-furan-3-ylidene)methyl]benzenesulphonamide] | 0.073 µM | 174 | 0.7 mg/kg | – | 6.4 mg/kg | 12.7 µM | – | – | – |

Reference: patent US6180651A, “Diarylmethylidenefuran derivatives, processes for their preparation and their uses in therapeutics” (Bristol-Myers Squibb, priority 1996, dated 2001)
